Data taken from ChEMBL document CHEMBL1201862, “PubChem BioAssay data set” (2004).
Calls of active or inactive are those of the source.

Experiments:
Prothrombin = Prothrombin (Homo sapiens, UniProt P00734); assay: Thrombin 1536 HTS Dose Response Confirmation. [Related pubchem assays: 1046 (Thrombin 1536 HTS; hits were confirmed in this assay)]; type: functional
[1] = cytotoxicity in MIN6 insulinoma cells, dose response, cytotoxicity control, cell-based, mouse insulinoma (AID 2122); type: functional;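 further: confirmatory high-throughput counterscreen run to flag cytotoxic compounds; mouse MIN-6 beta cells carrying an insulin promoter eGFP reporter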
[2] = insulin promoter down-regulators in MIN6 cells, imaging, high-content screening, mouse beta cells (AID 1628); type: functional
[3] = Luminescence-based dose response cell-based high throughput screening assay for cytotoxic compounds using the IEC-6 intestinal epithelial cell line. [Related pubchem assays: 1858 (Summary AID.), 1825 (Counterscreen.), 1907 (Confirmation screen.)]; type: functional
[4] = target: Sphingosine 1-phosphate receptor 2 (Homo sapiens, UniProt O95136); assay: Dose Response Cell Based Assay for Antagonists of the S1P2 Receptor. [Related pubchem assays: 856, 736 ]; type: functional
Ephrin type-A receptor 4 = Ephrin type-A receptor 4 (Mus musculus, UniProt Q03137); assay: inhibitors of EphA4 binding to KYL peptide, primary screen, biochemical, colorimetric, mouse EphA4 (AID 689); type: functional
Cytochrome P450 2C9 = Cytochrome P450 2C9 (Homo sapiens, UniProt P11712)
[5] = target: 5-hydroxytryptamine receptor 1A (Homo sapiens, UniProt P08908); type: functional
Protein RecA = target: T1, Protein RecA (Mycobacterium tuberculosis, UniProt P9WHJ3); assay: Fluorescence Cell-Free Homogeneous Dose Retest to Identify Inhibitors of RecA-Intein Splicing Activity. [Related pubchem assays (depositor defined):AID2097, AID2223, AID489010, AID492950]; type: functional
T1 sequence (P9WHJ3 whole entry): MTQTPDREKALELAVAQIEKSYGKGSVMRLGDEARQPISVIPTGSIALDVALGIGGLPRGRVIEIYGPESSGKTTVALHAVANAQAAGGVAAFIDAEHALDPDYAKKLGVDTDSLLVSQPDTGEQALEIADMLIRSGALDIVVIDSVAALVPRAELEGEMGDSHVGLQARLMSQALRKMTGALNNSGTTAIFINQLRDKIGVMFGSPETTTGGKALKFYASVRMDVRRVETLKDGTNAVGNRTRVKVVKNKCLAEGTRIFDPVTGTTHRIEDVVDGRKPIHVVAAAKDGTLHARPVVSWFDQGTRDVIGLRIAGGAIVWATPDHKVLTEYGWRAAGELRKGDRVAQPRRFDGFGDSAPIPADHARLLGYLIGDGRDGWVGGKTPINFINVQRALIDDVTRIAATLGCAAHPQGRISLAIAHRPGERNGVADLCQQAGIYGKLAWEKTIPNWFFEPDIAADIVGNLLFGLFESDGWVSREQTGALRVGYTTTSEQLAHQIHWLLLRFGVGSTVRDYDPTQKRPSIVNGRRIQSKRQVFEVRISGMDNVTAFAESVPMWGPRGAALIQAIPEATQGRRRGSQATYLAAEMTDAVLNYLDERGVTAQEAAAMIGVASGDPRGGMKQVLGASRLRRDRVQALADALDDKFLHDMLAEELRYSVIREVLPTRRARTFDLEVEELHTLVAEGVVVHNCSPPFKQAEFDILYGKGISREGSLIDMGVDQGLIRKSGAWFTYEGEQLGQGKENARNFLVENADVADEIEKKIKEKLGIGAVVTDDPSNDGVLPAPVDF

[6] = HepG2 cell cytotoxicity, dose response, cytotoxicity control for Shn3 inhibitor project, CellTiter-Glo, cherry-picked (AID 624134); type: functional, cell-based
[7] = target: Sphingosine 1-phosphate receptor 1 (Homo sapiens, UniProt P21453); type: functional;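 further: Tango beta-arrestin reporter U2OS cells stimulated with S1P near its EC80; inhibitor potency meaning antagonism of receptor activation by the natural agonist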
[8] = target: T2, Sphingosine 1-phosphate receptor 4 (Homo sapiens, UniProt O95977); assay: Fluorescence dose response cell-based high throughput screening assay for antagonists of the Sphingosine 1-Phosphate Receptor 4 (S1P4). [Related pubchem assays: 1524 (Confirmation in triplicates.), 1510 (Primary screen.)]; type: functional
T2 sequence (O95977 whole entry): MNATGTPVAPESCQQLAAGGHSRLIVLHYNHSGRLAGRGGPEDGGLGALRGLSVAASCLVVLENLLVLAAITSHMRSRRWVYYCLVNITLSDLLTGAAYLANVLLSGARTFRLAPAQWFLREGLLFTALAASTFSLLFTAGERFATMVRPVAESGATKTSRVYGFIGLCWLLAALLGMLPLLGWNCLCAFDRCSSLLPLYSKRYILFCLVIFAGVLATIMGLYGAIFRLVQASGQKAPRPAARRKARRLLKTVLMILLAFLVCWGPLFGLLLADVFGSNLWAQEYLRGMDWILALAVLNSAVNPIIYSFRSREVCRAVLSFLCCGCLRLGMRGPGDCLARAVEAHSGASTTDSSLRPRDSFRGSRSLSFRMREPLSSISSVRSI

[9] = control 3'UTR Renilla luciferase suppression, dose response, counter-screen for Shn3 inhibitor project, cell-based, Clone20-Shn3RL, cherry-picked (AID 624133); type: functional
[10] = Luminescent dose response cell-based high throughput screening assay for inhibitors of the Janus kinase 2 mutant JAK2V617F. [Related pubchem assays: 1446 (Primary screen.), 1521 (Confirmation assay.), 1486 (Counter screen.)]; type: functional
[11] = target: Heat shock protein HSP 90-alpha (Homo sapiens, UniProt P07900); type: functional, organism-based
Fatty acid synthase [12] = target: T3, Fatty acid synthase (Homo sapiens, UniProt P49327); assay: FAS thioesterase domain inhibitors, dose response, biochemical, endpoint fluorescence intensity, uHTS hits (AID 624327); type: functional;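 further: fluorescence from hydrolysis of an O-methyl fluorescein acyl ester substrate by the enzyme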
Fatty acid synthase [13] = target: T3, Fatty acid synthase; assay: FAS thioesterase domain inhibitors, dose response, biochemical, kinetic fluorescence intensity (AID 624326); type: functional;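 further: rate of fluorescence rise from hydrolysis of a fluorogenic O-methyl fluorescein ester substrate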
[14] = target: T2, Sphingosine 1-phosphate receptor 4; assay: Late stage fluorescence dose response cell-based screening assay for antagonists of the Sphingosine 1-Phosphate Receptor 4 (S1P4). [Related pubchem assays: 1524 (Confirmation screen (S1P4 antagonists).), 1510 (Primary screen (S1P4 antagonists).), 1853 (Summary AID (S1P4 antagonists).), 1692 (Dose response screen (S1P4 antagonists).)]; type: functional
[15] = Shn3 3'UTR reporter inhibitors, dose response, cell-based, Clone20 osteoblasts, firefly luciferase, cherry-picked (AID 624132); type: functional;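 further: firefly luciferase luminescence from reporter carrying the Shn3 3'UTR in osteoblasts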
INS1 = assay: beta cell apoptosis inhibitors, cytokine rescue, dose response, luminescence, retest (AID 449756); type: functional, cell-based; details: Rattus norvegicus;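 further: cell death triggered by IL-1 beta plus TNF-alpha plus IFN-gamma mixture; protective hits raise ATP signal compared with cytokine alone wells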
[16] = target: T4, Replicative DNA helicase DnaB (Mycobacterium tuberculosis, UniProt P9WMR3); assay: DnaB intein splicing inhibitors, dose response, biochemical, cell-free fluorescence (AID 449749); type: functional
T4 sequence (P9WMR3 whole entry): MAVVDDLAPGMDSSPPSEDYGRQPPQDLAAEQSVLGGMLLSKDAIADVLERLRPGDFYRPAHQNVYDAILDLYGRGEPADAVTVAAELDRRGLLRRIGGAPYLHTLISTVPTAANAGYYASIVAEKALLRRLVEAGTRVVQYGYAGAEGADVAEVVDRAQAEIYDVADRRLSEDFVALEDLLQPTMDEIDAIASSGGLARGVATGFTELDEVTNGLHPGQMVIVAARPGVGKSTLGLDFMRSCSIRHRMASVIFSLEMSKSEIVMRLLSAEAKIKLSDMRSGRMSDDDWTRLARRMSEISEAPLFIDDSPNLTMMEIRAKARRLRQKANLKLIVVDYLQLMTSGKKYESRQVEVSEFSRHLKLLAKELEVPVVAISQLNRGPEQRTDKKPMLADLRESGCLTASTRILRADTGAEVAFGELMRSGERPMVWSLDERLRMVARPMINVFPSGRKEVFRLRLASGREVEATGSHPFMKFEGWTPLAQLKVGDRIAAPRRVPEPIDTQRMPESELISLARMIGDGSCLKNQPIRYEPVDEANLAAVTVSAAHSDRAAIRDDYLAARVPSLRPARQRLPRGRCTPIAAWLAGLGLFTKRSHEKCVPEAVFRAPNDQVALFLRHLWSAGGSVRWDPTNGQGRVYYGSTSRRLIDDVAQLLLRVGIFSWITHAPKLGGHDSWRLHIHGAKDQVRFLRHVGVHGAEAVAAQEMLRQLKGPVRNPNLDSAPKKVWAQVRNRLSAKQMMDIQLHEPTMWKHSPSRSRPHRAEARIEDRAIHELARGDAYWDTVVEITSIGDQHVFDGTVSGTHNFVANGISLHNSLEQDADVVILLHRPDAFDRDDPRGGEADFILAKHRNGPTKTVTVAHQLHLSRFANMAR

[17] = target: 5-hydroxytryptamine receptor 2A (Mus musculus, UniProt P35363); type: functional, cell-based;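 further: CHO-K1 cells with tagged receptor and beta-arrestin; agonist potency measured as compound-induced activation of the receptor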
[18] = growth suppression of beta-catenin-knockout colon cells, dose response, cell-based, HCT116, human colon tumor (AID 1045); type: functional;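 further: HCT116 colon tumor cells with beta catenin knocked out; cells exposed to compound for 60 hours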
[19] = growth suppression of PTEN-null colon cells, dose response, cell-based, HCT116 PTEN knockout (AID 1047); type: functional;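 further: HCT116 colon tumor cells with PTEN knocked out; cells exposed to compound for 60 hours before readout; potency for loss of cell viability measured by luminescence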
Mu-type opioid receptor = Mu-type opioid receptor (Homo sapiens, UniProt P35372); type: functional, cell-based;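 further: U2OS cells with beta-arrestin recruitment to OPRM1 by beta-gal complementation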
[20] = target: T5, Rac GTPase-activating protein 1 (Homo sapiens, UniProt Q9H0H5); assay: MgcRacGAP GTPase-activating activity inhibitors, confirmation, biochemical, ADP Hunter fluorescence, primary and confirmatory (AID 624330); type: functional
T5 sequence (Q9H0H5 whole entry): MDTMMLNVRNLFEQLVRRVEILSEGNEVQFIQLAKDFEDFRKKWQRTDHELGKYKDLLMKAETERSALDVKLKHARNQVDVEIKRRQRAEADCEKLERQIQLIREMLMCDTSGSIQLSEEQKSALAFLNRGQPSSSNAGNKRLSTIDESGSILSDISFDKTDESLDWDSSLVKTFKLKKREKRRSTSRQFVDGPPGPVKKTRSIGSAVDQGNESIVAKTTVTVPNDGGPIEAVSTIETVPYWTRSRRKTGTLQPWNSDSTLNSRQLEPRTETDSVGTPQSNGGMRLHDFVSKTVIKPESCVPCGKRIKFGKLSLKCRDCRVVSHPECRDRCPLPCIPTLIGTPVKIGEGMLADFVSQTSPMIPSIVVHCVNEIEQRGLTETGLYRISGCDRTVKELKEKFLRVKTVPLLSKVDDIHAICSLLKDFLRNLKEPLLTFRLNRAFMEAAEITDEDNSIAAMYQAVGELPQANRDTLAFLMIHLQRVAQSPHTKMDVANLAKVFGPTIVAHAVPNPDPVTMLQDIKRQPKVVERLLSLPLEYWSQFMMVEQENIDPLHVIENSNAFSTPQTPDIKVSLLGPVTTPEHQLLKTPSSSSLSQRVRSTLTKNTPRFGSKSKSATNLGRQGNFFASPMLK

[21] = target: Eukaryotic translation initiation factor 4E (Mus musculus, UniProt P63073); assay: eIF4E–eIF4G protein interaction inhibitors, dose response, biochemical, TR-FRET (AID 855); type: functional;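 further: potency for disrupting eIF4E binding to eIF4GI seen as loss of FRET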
[22] = target: Induced myeloid leukemia cell differentiation protein Mcl-1 (Homo sapiens, UniProt Q07820); type: functional
[23] = target: DNA (cytosine-5)-methyltransferase 1 (Homo sapiens, UniProt P26358); assay: DNMT1 methyltransferase inhibitors, confirmation, biochemical, fluorescent molecular beacon (AID 602386); type: functional
[24] = target: T6, Carboxy-terminal domain RNA polymerase II polypeptide A small phosphatase 1 (Homo sapiens, UniProt Q9GZU7); assay: inhibitors of CTDSP1, concentration-response testing, biochemical assay, absorbance-based, actives from ultra-high-throughput screening (AID 540297); type: functional
T6 sequence (Q9GZU7 whole entry): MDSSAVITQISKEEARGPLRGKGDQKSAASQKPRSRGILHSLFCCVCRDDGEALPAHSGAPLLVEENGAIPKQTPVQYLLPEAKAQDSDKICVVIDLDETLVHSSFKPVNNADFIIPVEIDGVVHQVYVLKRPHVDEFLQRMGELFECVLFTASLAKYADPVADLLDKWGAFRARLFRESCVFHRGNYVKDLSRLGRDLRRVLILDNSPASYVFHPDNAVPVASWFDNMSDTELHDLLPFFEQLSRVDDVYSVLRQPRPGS

Estrogen receptor beta [25] = target: T7, Estrogen receptor beta (Homo sapiens, UniProt Q92731);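 further: recombinant ER-beta bound to coactivator SRC1 peptide in presence of estradiol agonist; inhibitors block coactivator peptide binding and lower the FRET signal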
Estrogen receptor beta [26] = target: T7, Estrogen receptor beta; assay: ERβ–SRC-3 coactivator interaction inhibitors, confirmation, orthogonal assay, biochemical, ELISA, streptavidin-HRP readout (AID 1060)
[27] = HEp-2 cell cytotoxicity, dose response, cytotoxicity control for RSV inhibitor project, HTS (AID 2410); type: functional; details: human respiratory syncytial virus
[28] = inhibitors of Vif binding to APOBEC3G peptide, primary screen, biochemical, TR-FRET, GST-Vif 1-94, biotin-A3G peptide, dose response retest (AID 1117319); type: functional;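 further: TR-FRET signal of purified GST-Vif binding a biotinylated A3G peptide; inhibitors lower the FRET signal by blocking Vif and A3G binding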

T7 sequence (Q92731 whole entry): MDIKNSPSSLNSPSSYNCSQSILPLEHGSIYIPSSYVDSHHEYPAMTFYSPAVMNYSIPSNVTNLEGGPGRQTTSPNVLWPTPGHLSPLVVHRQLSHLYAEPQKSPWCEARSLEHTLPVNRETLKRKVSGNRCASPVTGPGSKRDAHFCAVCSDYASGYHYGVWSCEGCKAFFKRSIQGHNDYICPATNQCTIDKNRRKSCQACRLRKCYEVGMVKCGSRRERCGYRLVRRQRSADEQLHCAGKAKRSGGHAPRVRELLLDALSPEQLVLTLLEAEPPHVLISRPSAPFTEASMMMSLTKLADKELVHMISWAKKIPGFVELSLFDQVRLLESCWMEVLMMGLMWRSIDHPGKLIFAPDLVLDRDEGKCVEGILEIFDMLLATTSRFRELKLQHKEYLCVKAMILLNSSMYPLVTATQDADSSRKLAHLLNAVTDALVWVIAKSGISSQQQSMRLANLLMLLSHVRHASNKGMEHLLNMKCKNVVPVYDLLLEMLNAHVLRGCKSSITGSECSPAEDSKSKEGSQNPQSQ
Ephrin type-A receptor 4, sequence (Q03137 whole entry): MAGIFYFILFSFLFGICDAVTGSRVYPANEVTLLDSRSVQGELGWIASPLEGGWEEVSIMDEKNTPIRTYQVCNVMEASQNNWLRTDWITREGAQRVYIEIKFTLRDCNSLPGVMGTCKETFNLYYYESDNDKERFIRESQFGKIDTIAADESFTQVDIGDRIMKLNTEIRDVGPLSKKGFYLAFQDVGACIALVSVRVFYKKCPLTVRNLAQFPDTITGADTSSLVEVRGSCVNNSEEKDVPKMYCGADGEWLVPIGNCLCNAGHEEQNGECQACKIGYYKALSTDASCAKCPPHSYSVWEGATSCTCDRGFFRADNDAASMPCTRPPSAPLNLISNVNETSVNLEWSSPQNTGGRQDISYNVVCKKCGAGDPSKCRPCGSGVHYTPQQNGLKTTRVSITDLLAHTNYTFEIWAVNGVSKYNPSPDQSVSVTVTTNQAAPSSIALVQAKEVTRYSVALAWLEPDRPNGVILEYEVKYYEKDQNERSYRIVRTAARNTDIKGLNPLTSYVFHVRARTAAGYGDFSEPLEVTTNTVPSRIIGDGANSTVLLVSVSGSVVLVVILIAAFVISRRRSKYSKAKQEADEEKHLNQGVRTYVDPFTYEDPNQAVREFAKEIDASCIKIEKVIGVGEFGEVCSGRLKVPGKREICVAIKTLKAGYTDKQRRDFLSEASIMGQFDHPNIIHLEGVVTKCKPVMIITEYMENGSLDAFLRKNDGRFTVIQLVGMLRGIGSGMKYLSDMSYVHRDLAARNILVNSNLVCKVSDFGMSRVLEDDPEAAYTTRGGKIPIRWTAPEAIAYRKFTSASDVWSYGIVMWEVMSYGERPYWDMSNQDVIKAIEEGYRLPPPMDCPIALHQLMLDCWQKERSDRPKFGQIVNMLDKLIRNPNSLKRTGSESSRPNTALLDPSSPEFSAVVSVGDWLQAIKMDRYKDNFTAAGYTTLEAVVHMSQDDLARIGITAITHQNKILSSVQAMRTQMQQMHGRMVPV
T3 sequence (P49327 whole entry, the tested form may be a part): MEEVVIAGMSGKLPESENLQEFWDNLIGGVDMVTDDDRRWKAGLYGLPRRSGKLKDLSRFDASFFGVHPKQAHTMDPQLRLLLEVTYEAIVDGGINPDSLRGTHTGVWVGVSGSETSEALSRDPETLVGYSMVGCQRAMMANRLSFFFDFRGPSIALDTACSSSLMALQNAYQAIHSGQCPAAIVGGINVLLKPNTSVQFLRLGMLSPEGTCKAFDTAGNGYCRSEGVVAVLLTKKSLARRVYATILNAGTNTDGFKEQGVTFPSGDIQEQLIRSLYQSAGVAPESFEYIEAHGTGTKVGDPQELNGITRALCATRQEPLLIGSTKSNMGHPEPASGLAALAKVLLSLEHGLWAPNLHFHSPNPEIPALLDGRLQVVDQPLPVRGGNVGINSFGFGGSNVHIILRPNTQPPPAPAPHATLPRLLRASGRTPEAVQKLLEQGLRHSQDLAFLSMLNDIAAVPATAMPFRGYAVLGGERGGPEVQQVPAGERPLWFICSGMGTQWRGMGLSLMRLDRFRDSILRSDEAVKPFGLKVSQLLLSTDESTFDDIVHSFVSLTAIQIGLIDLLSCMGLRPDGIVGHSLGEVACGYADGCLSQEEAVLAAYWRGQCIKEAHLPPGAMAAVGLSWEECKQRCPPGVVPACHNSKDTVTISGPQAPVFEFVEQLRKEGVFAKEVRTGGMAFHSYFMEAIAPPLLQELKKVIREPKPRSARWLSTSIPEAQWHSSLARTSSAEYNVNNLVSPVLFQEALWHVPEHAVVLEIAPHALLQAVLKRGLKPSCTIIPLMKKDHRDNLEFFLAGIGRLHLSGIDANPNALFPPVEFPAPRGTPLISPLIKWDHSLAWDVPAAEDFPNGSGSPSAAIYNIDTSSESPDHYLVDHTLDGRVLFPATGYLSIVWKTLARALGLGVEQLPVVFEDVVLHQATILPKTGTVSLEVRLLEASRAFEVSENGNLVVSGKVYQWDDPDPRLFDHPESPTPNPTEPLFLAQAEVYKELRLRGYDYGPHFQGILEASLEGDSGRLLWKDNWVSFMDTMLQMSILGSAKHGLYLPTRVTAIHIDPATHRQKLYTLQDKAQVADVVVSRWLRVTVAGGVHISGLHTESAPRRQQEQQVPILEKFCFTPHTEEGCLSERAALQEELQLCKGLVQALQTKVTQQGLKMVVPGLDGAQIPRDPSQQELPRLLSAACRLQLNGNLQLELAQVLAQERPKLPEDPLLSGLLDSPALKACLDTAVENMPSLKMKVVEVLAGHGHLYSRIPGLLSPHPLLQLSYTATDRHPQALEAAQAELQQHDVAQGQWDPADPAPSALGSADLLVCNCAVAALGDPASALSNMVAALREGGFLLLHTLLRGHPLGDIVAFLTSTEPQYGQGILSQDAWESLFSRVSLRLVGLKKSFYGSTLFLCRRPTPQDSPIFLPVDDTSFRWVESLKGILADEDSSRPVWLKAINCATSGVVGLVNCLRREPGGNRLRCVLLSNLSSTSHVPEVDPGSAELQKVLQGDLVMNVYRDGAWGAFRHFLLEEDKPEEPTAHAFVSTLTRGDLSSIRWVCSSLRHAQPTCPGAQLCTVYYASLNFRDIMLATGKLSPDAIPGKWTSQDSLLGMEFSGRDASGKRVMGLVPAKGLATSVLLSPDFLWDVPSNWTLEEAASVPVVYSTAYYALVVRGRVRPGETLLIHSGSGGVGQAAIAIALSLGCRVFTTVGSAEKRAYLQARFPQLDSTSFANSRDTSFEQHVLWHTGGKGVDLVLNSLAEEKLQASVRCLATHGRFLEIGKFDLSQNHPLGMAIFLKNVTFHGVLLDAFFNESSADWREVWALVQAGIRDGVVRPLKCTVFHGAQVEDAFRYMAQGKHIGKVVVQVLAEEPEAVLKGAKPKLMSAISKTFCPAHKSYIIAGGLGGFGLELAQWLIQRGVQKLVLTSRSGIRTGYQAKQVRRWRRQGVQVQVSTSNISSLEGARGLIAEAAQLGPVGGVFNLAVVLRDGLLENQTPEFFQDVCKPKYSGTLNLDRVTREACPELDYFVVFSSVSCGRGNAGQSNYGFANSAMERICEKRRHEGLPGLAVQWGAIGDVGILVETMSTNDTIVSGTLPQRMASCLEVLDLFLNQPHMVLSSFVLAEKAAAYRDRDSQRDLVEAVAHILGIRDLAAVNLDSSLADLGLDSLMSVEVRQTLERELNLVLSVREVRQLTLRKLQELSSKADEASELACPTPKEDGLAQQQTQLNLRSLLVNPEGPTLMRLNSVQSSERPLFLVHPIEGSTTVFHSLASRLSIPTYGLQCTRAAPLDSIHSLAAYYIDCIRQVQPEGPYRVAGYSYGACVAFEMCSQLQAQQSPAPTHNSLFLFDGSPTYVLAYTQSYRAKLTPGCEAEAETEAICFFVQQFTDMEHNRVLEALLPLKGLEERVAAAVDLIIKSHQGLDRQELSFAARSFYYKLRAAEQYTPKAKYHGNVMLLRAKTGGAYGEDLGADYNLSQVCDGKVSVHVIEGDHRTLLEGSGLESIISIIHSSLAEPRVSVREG
5-hydroxytryptamine receptor 1A, sequence (P08908 whole entry): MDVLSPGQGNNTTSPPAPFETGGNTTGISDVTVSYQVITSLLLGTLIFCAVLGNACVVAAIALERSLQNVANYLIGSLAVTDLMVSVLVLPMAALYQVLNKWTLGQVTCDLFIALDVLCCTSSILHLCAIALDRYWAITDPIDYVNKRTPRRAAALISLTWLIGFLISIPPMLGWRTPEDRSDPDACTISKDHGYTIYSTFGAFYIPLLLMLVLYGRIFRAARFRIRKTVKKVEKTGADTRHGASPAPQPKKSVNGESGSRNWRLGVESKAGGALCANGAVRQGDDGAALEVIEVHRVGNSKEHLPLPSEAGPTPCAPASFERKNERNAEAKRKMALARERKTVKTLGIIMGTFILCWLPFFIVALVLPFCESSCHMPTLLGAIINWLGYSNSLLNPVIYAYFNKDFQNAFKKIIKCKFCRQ
Cytochrome P450 2C9, sequence (P11712 whole entry): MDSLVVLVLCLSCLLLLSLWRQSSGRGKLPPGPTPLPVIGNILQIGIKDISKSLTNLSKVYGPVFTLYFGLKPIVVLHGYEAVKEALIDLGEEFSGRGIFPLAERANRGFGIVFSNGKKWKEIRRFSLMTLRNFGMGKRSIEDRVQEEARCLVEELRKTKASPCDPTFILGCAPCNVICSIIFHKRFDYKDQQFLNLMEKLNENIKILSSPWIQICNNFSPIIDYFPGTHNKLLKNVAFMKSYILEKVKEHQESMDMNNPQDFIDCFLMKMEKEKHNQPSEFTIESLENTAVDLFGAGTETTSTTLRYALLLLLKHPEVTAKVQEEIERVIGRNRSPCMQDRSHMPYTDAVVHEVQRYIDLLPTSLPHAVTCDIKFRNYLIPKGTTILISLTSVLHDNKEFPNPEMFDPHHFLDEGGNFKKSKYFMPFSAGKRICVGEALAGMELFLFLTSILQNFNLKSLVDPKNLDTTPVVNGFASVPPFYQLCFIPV

COc1ccc(NC(=NC(C)=O)Nc2nc(C)cc(C)n2)cc1OC
IC50 (Prothrombin): 2.95 µM (active)

OC1=C2C(=Nc3cc4c(cc3C2c2ccc(F)cc2)OCO4)CO1 (configuration not stated)
IC50 [1]: < 0.25 µM (active)
IC50 [2]: 1.32 µM (active)
IC50 [3]: 0.112 µM (active)

COC(=O)c1c(C)nn(-c2ccccc2)c1-n1cccc1
IC50 (Prothrombin): > 50 µM (not active)

COC(=O)c1sc2cc(C(F)(F)F)cnc2c1-c1cccs1
IC50 [4]: > 30 µM (not active)

O=C(Nc1cccc2ccccc12)/C(=C/c1ccc([N+](=O)[O-])cc1)NC(=O)c1ccccc1
IC50 (Ephrin type-A receptor 4): 11.4 µM (active)
AC50 (Cytochrome P450 2C9): 5.01 µM (inconclusive)

COc1ccc(CN2CCN(c3ccccc3F)CC2)c(OC)c1
EC50 [5]: > 50 µM (not active)

Cc1ccccc1CS(=O)(=O)c1nnc([C@H](Cc2ccccc2)NC(=O)OC(C)(C)C)o1
EC50 (Protein RecA): 8.54 µM (active)
AC50 [6]: > 70 µM (inactive)
IC50 [7]: > 49.8 µM (not active)
IC50 [8]: 1.69 µM (active)
AC50 [9]: 8.32 µM (active)
IC50 [10]: 0.695 µM (active)
AC50 [11]: 24.1 µM (active)
IC50 (Fatty acid synthase [12]): 6.74 µM (active)
IC50 (Fatty acid synthase [13]): 8.22 µM (active)
IC50 [14]: 3.49 µM (not active)
AC50 [15]: 1.23 µM (active)
AC50 (INS1): 8.99 µM (active)
AC50 [16]: 3.51 µM (active)

CCCCc1ccc2[nH]cc(CCN)c2c1
EC50 [17]: 13.3 µM (inactive)
EC50 [18]: 12.6 µM (active)
EC50 [19]: 10.6 µM (active)
EC50 (Mu-type opioid receptor): 92.5 µM (inactive)
EC50 [5]: 1.81 µM (active)

COc1ccc(Cc2nnc(NC(=O)Cc3cccs3)s2)cc1
IC50 [20]: 52 µM (active)
IC50 [21]: 16.9 µM (active)
IC50 [22]: 1.59 µM (active)
IC50 (Ephrin type-A receptor 4): 13.6 µM (active)
IC50 [23]: 4.47 µM (active)
IC50 [24]: 2.82 µM (active)
IC50 (Estrogen receptor beta [25]): < 1.56 µM (active)
IC50 (Estrogen receptor beta [26]): 0.0725 µM (not active)

O=C(Nc1ccc2c(c1)oc1ccccc12)c1cccnc1
CC50 [27]: 46.2 µM (active)
IC50 [28]: > 100 µM (active)
